The record followed here is US10077261B2, “Imidazolin-5-one derivative useful as FASN inhibitors for the treatment of cancer” (Janssen Pharmaceutica NV, priority 2012, dated 2018).

The structures appear in SMILES notation. Bounds are passed on as bounds.

Experiment [1] has as its system LNCaP-Vancouver prostate cells. Nature of the experiment: In vitro LNCaP Vancouver prostate cell proliferation assay in lipid reduced medium. The settings on record: read-out: pIC50 LNCaP_Vancouver prostate cell (converted). It counts as cell-based.
The subject of experiment [2] is A2780 ovarian cells. The experiment in a line: A2780 ovarian cell proliferation assay in lipid reduced medium, without palmitate (MTT). Type of experiment: cell-based. Conditions: Homo sapiens, A2780, 96 h; read-out: pIC50 A2780 Ovarian Cell, Without Palmitate (converted).
The target of experiment [3] is T1, hFASN enzyme (full length) (Homo sapiens, UniProt P49327).
T1 construct: 10 μL hFASN enzyme (full length, 300 ng, purified in house); made in house
T1 sequence (P49327 whole entry): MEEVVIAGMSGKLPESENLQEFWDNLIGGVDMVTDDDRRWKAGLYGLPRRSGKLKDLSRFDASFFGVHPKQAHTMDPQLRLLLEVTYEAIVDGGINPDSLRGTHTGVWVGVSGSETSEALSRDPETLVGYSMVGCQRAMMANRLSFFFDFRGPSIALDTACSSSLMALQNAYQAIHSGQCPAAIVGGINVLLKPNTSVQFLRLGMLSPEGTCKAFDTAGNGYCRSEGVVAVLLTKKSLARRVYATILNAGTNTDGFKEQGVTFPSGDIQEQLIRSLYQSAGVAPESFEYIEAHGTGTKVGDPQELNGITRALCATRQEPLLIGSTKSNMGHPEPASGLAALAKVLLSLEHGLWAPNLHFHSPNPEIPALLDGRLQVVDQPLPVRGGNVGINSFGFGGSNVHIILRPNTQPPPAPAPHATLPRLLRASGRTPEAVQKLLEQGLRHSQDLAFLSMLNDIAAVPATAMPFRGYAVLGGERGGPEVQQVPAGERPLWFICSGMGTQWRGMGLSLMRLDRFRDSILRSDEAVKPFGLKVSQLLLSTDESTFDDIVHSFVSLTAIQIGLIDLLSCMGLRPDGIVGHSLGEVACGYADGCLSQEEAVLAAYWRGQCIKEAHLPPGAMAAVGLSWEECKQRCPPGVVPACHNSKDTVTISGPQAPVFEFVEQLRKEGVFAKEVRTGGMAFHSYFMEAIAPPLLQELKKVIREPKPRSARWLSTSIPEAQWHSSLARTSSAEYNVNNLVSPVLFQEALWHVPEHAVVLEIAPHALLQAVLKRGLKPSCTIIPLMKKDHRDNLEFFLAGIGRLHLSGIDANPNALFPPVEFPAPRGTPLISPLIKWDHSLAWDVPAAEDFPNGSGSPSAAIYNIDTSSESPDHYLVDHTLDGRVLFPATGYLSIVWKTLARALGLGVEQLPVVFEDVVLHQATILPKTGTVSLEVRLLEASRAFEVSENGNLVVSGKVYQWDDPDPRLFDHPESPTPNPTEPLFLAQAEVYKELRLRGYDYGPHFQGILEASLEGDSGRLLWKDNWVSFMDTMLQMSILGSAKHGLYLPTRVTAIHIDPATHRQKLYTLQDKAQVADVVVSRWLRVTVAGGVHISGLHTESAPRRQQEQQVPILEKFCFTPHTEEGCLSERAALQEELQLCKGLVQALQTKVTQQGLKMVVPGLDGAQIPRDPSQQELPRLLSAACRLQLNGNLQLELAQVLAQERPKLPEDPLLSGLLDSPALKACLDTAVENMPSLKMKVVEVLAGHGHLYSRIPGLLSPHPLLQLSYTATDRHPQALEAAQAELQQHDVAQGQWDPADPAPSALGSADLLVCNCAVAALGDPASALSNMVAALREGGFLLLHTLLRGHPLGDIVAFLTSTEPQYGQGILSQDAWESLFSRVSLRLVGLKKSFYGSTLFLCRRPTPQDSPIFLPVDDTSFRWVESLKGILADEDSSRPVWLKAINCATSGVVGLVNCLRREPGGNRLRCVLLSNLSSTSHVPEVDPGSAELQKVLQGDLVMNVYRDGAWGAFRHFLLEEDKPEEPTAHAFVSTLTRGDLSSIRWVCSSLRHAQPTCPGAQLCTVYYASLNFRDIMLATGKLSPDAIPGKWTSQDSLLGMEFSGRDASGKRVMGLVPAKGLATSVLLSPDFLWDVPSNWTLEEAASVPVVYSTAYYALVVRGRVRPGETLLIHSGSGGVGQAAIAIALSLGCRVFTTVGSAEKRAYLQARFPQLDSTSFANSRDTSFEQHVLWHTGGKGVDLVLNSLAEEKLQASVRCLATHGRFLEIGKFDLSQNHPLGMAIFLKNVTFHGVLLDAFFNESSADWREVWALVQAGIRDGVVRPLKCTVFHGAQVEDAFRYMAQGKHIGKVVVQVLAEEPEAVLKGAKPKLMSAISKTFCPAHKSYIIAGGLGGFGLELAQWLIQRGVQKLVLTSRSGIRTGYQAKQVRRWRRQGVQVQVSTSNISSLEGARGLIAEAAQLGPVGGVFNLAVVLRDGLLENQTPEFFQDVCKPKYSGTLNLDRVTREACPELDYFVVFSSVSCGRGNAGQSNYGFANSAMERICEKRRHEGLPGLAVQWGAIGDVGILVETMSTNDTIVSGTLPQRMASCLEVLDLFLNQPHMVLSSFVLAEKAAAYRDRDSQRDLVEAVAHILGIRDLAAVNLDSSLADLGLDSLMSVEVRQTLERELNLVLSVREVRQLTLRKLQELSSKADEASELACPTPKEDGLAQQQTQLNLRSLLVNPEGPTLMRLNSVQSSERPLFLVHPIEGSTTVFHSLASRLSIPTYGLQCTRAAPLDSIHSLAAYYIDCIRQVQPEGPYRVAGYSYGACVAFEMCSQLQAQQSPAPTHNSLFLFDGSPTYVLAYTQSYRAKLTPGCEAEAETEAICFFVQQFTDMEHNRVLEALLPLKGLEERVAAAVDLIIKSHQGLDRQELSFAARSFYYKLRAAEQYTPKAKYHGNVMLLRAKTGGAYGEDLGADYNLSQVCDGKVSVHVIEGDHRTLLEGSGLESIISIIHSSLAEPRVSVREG
Nature of the experiment: Fatty Acid Synthase (FASN) inhibition scintillation proximity assay. The settings on record: for inhibition at 10 µM: read-out: Human FASN % inhibition @ 10 μM, 10 μM test compound; for IC50: read-out: Human FASN pIC50 (converted). Type of experiment: biochemical. The essentials:
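Full-length in-house purified enzyme (300 ng) was tested in 100 mM KH2PO4 pH 7.5, 1 mM DTT with ³H-acetyl-CoA and malonyl-CoA as substrates; compounds ranged 0.01–30 μM. Reactions were stopped with streptavidin imaging beads, read by LEADseeker at 610 nm, and fitted to a 4-parameter logistic curve.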
In general terms: Scintillation proximity formats need no separation of bound from free tracer.

Experiment [4] has as its system PC-3M-Luc-C6 prostate cells. Nature of the experiment: In vitro PC-3M-Luc-C6 prostate cell proliferation assay in lipid reduced medium. It counts as cell-based. Conditions: 96 h, read-out: pIC50 PC-3M-Luc-C6 prostate cell (converted).
For experiment [5], the system named is A2780 ovarian cells. The experiment in a line: A2780 ovarian cell proliferation assay in lipid reduced medium, with palmitate (MTT). It counts as cell-based. The settings on record: Homo sapiens, A2780, 96 h; read-out: pIC50 A2780 Ovarian Cell, With Palmitate (converted). The essentials:
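Seeded cells were switched next day to lipid-reduced serum, exposed to compound and 25 μM palmitate complexed with fatty-acid-free BSA, and incubated 96 h. Proliferation was then determined by MTT absorbance at 544 nm, with a best-fit curve of signal against concentration.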

For experiment [6], the target named is Fatty Acid Synthase Keto-reductase Domain (FASN KR) (Homo sapiens, UniProt P49327). Nature of the experiment: Fatty Acid Synthase keto-reductase domain (FASN KR) inhibition, NADPH oxidation at 340 nm.
Chain of Fatty Acid Synthase Keto-reductase Domain (FASN KR) (P49327 whole entry, the tested form may be a part): as the sequence (P49327 whole entry) above
Protocol: After 20 minutes incubation at room temperature the plate was measured again (T2).
The decrease in absorbance was calculated as (Absorbance before incubation T1)−(Absorbance following incubation T2).
A plot of Controlmin versus test compound concentration was fitted to a 4-parameter logistic curve using a non-linear least squares regression method.

With `O=C(C1CC1)N1CC(CN2C(=O)C3(CC3)N=C2c2ccc(-c3ccc4ccc(F)cc4c3)cc2F)C1` [compound 324, 6-((1-(cyclopropanecarbonyl)azetidin-3-yl)methyl)-5-(2-fluoro-4-(7-fluoronaphthalen-2-yl)phenyl)-4,6-diazaspiro[2.4]hept-4-en-7-one], the IC50 is 158 nM in experiment [1]; 19.5 nM in the experiment with A2780 ovarian cells [2]; 32.4 nM in experiment [3]; roughly 30.2 nM in experiment [4]; greater than 10000 nM with A2780 ovarian cells [5]; 67.6 nM in experiment [6]. Also, the inhibition at 10 µM in experiment [3] came to 105%.

Take `Cc1cc(-c2ccc(-c3cnn(C(C)C)c3)cc2)ccc1C1=NC2(CC2)C(=O)N1CC1CN(C(=O)C2CC2)C1` [compound 325, 6-((1-(cyclopropanecarbonyl)azetidin-3-yl)methyl)-5-(4′-(1-isopropyl-1H-pyrazol-4-yl)-3-methyl-[1,1′-biphenyl]-4-yl)-4,6-diazaspiro[2.4]hept-4-en-7-one]: the IC50 is 363 nM in experiment [1]; roughly 49 nM in the experiment on A2780 ovarian cells [2]; 79.4 nM in experiment [3]; 83.2 nM in experiment [4]; greater than 10000 nM in the experiment on A2780 ovarian cells [5]; 490 nM in experiment [6]. Further, the inhibition at 10 µM in experiment [3] worked out at 100%.

Take `Cc1cc(-c2ccc(-c3cnn(C4CC4)c3)cc2)ccc1C1=NC2(CC2)C(=O)N1CC1CN(C(=O)C2CC2)C1` [compound 326, 6-((1-(cyclopropanecarbonyl)azetidin-3-yl)methyl)-5-(4′-(1-cyclopropyl-1H-pyrazol-4-yl)-3-methyl-[1,1′-biphenyl]-4-yl)-4,6-diazaspiro[2.4]hept-4-en-7-one]: the IC50 in experiment [1] is 170 nM; in the experiment on A2780 ovarian cells [2], roughly 12 nM; in experiment [3], 39.8 nM; in experiment [4], 49 nM; in the experiment with A2780 ovarian cells [5] it was 9120 nM; in experiment [6] it was 407 nM. In experiment [3], the inhibition at 10 µM is 103%.

`CC(C)n1cc(-c2ccc(-c3ccc(C4=NC5(CC5)C(=O)N4CC4CN(C(=O)C5CC5)C4)c(F)c3)cc2)cn1` [compound 327, 6-((1-(cyclopropanecarbonyl)azetidin-3-yl)methyl)-5-(3-fluoro-4′-(1-isopropyl-1H-pyrazol-4-yl)-[1,1′-biphenyl]-4-yl)-4,6-diazaspiro[2.4]hept-4-en-7-one]: the IC50 in experiment [1] was 138 nM; with A2780 ovarian cells [2], 10.5 nM; in experiment [3], 32.4 nM; in experiment [4], 34.7 nM; in the experiment on A2780 ovarian cells [5], 8130 nM; in experiment [6] it was 158 nM. Also, the inhibition at 10 µM in experiment [3] was found to be 104%.

As to `O=C(C1CC1)N1CC(CN2C(=O)C3(CC3)N=C2c2ccc(-c3ccc(-c4cnn(C5CC5)c4)cc3)cc2F)C1` [compound 328, 6-((1-(cyclopropanecarbonyl)azetidin-3-yl)methyl)-5-(4′-(1-cyclopropyl-1H-pyrazol-4-yl)-3-fluoro-[1,1′-biphenyl]-4-yl)-4,6-diazaspiro[2.4]hept-4-en-7-one], the IC50 in experiment [1] is 53.7 nM; in the experiment with A2780 ovarian cells [2] it was 5.13 nM; in experiment [3], 31.6 nM; in experiment [4], 16.2 nM; in the experiment on A2780 ovarian cells [5] it was 10000 nM; in experiment [6], 79.4 nM. The inhibition at 10 µM in experiment [3] is 98%.

For `CC(C)n1cc(-c2ccc(-c3ccc(C4=NC5(CC5)C(=O)N4CC4CN(C(=O)C5CC5)C4)cc3)cc2)cn1` [compound 331], the IC50 in experiment [1] was 617 nM; with A2780 ovarian cells [2], 69.2 nM; in experiment [3], 66.1 nM; in experiment [4], 148 nM; with A2780 ovarian cells [5], 5620 nM; in experiment [6] it was 245 nM. The inhibition at 10 µM in experiment [3] amounted to 100%.

The inhibition is the relative decrease from the control value, in per cent.
